Earlier results in patent publication US20250205347A1, “METHODS FOR TREATING INFLAMMATORY CONDITIONS OF THE EYE WITH AN IGF-1R LIGAND CONJUGATED TO A DISEASE-MODIFYING AGENT” (Lirum Therapeutics, Inc., priority 2022, published 2025).

How the values were obtained:
IGFBPs = settings: known in the art (U.S. Pat. No. 4,876,242; Francis et al. 1992)
IGF-1R = IGF-1R (Homo sapiens, UniProt P08069); settings: relative to IGF-1 / IGF-2; Hakuno et al. 2018
Chain of IGF-1R (P08069 31-736 limits assumed, species assumed): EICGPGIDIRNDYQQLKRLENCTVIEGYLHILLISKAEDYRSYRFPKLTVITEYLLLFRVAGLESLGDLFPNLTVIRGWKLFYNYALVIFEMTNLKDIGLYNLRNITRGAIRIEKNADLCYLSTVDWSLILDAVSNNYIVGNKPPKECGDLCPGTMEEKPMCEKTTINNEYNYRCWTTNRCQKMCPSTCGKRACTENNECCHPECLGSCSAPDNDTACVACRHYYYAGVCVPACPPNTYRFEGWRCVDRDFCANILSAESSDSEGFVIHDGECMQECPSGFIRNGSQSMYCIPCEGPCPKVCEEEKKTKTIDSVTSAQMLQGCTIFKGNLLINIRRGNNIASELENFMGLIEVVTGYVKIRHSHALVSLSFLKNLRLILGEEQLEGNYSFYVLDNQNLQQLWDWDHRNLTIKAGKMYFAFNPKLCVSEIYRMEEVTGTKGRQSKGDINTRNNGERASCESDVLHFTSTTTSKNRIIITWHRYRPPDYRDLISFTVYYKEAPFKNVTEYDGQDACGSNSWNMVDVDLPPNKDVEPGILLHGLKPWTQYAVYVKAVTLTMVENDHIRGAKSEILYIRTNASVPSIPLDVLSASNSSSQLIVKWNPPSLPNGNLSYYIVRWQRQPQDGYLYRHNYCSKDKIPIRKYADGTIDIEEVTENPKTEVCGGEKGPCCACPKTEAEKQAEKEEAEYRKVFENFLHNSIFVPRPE
Chain of IGF-1R (P08069 741-1367 partner limits assumed, species assumed): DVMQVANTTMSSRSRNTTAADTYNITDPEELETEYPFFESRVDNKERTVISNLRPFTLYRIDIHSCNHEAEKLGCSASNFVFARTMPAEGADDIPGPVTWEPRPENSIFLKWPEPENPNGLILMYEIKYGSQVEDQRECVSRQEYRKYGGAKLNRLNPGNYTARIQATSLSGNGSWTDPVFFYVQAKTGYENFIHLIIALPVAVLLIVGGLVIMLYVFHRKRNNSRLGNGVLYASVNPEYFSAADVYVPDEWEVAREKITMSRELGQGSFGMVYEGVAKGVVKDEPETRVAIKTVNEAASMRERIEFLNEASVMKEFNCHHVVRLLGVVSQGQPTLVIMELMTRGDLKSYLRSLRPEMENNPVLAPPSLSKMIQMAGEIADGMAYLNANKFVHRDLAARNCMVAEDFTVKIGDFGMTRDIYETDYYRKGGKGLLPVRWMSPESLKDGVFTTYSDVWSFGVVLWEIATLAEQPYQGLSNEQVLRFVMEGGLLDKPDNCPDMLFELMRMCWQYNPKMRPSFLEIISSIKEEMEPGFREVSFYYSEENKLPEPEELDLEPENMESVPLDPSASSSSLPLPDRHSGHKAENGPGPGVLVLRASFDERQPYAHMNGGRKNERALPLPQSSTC

Molecule | binding affinity for IGFBPs as compared to wildtype IGF-1 (IGFBPs) | affinity of IGF-1R for the ligand, fold lower (IGF-1R)
R3-IGF-1: IGF-1 variant (SEQ ID NO:6): glutamic acid in position 3 of human IGF-1 substituted by arginine | reduced binding affinity for IGFBPs | –
des(1-3) IGF-1: IGF-1 variant (SEQ ID NO:7) lacking the first three amino acids of human IGF-1 | reduced binding affinity for IGFBPs | –
insulin: native IGF-1R ligand; mature human insulin, chain A SEQ ID NO:10 and chain B SEQ ID NO:11 | – | 50-to 100 fold
IGF132: IGF-1 variant (SEQ ID NO:4): first 17 amino acids of insulin B chain replace first 16 amino acids of human IGF-1 (protein) FVNQHLCGSHLVEALYLVCGDRGFYFNKPTGYGSSSRRAPQTGIVDECCFRSCDLRRLEMYCAPLKPAKSA | reduced binding affinity for IGFBPs | –
